Test results from patent US10188612B2, “Pharmaceutical compositions for inhalation” (VECTURA LIMITED, priority 2000, dated 2019).

Assay: Standard dissolution test (sintered glass disc over stirred reservoir of deionised water)
Assay type: physicochemical
Details: FIG. 2
Protocol: The samples were analysed in a Cecil Aquarius CE7200 ultraviolet spectrophotometer at a wavelength of 200 nm. The concentration of the samples was calculated with a previously prepared calibration graph and the concentration versus time was plotted.
The apparatus used is shown in FIG. 1 and comprises a 195 cm^3 reservoir (1) filled with deionised water (2) and having an inlet port (3) and an outlet port (4). A sintered glass disc (5) of approximately 50 mm diameter and 3 mm depth occupies an opening at the top of the reservoir (1) and sits horizontally in contact with the water (2). The water in the reservoir is stirred by a magnetic stirrer (6).
A known mass of approximately 1 mg of the formulation (7) to be tested is placed on the sinter and a timer is started. At various times, 1 cm^3 samples of the water are removed from the reservoir and are immediately replaced with 1 cm^3 deionised water to maintain the volume in the reservoir. The concentration of the active substance in the 1 cm^3 samples is determined by a suitable method.

time at which the maximum concentration is achieved: 10 min
concentration of active substance in the reservoir at the first time point (at 5 minutes, UV at 200 nm): greater than 10 mg/l
Compound: C[N+]1(C)CCC(OC(=O)C(O)(c2ccccc2)C2CCCC2)C1 (centres unmarked) [glycopyrrolate]
